Reference: patent US7183260B2, “C-terminal modified oxamyl dipeptides as inhibitors of the ICE/ced-3 family of cysteine proteases” (Idun Pharmaceuticals, Inc., priority 1998, dated 2007)
pKi: −log10 of the molar value.

Tests used:
Assay type in all cases: biochemical
Conditions in all cases: continuous assay 60 min, reaction initiated by adding enzyme to substrate-inhibitor mixture
mICE = molecular target: T1, mICE (Mus musculus, UniProt P29452); assay: Dissociation constant Ki and irreversible rate constant k3 for irreversible inhibitors (ICE)
T1 sequence (P29452 123-296 limits assumed): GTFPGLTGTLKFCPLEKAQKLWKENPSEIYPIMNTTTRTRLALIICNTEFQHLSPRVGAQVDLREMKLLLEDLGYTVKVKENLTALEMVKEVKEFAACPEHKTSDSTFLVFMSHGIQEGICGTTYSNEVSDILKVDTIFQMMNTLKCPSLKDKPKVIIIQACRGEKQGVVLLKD
T1 sequence (P29452 315-402 limits assumed): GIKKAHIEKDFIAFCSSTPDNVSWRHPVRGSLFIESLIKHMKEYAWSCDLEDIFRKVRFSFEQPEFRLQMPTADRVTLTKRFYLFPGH

CPP32 = molecular target: T2, CPP32 (Homo sapiens, UniProt P42574); assay: Dissociation constant Ki and irreversible rate constant k3 for irreversible inhibitors (CPP32)
T2 sequence (P42574 29-175 limits assumed): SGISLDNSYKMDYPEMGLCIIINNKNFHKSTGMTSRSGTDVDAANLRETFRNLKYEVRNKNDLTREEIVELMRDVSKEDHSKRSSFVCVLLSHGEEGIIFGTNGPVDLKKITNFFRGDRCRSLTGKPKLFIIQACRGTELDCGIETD
T2 sequence (P42574 176-277 limits assumed): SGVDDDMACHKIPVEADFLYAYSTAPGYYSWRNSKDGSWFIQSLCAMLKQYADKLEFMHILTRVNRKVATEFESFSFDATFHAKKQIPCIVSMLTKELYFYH

MCH-2 = molecular target: T3, MCH-2 (Homo sapiens, UniProt P55212); assay: Dissociation constant Ki and irreversible rate constant k3 for irreversible inhibitors (Mch2)
T3 sequence (P55212 24-179 limits assumed): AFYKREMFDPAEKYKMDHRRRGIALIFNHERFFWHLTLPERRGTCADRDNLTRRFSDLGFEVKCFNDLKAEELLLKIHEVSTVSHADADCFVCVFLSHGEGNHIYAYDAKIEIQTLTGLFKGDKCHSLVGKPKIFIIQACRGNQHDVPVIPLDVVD
T3 sequence (P55212 194-293 limits assumed): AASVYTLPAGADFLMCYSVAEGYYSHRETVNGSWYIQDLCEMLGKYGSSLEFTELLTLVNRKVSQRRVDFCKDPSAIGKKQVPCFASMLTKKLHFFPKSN

MCH-5 = MCH-5 (Homo sapiens, UniProt Q14790); assay: Dissociation constant Ki and irreversible rate constant k3 for irreversible inhibitors (Mch5)
Sequence of MCH-5 (Q14790 217-374 limits assumed, species assumed): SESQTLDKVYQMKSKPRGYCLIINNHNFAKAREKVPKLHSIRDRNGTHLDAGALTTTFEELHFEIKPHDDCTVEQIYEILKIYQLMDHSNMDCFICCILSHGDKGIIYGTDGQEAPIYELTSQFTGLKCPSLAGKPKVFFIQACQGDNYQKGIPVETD
Sequence of MCH-5 (Q14790 385-479 limits assumed, species assumed): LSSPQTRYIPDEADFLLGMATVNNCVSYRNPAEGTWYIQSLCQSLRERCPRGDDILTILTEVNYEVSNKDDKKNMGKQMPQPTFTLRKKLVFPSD

Row | SMILES | pKi (mICE) | mICE k3/Ki (mICE) | CPP32 k3/Ki (CPP32) | pKi (CPP32) | pKi (MCH-2) | MCH-2 k3/Ki (MCH-2) | pKi (MCH-5) | MCH-5 k3/Ki (MCH-5)
1 | CC(C)[C@H](NC(=O)C(=O)Nc1cccc2ccccc12)C(=O)NC(CC(=O)O)C(=O)CF (mixture of isomers) [Example 3, (3RS)-3-[N-(N′-(1-NAPHTHYL)OXAMYL)VALINYL]AMINO-5-FLUORO-4-OXOPEINTANOIC ACID] | 8.74 | 2,170,000 moles^−1 seconds^−1 | 413,000 moles^−1 seconds^−1 | 7.49 | 7.77 | 199,000 moles^−1 seconds^−1 | 8.89 | 1,160,000 moles^−1 seconds^−1
2 | CC(C)[C@H](NC(=O)C(=O)Nc1cccc2ccccc12)C(=O)N[C@@H](CC(=O)O)C(=O)COC(=O)c1c(Cl)cccc1Cl [Example 4] | 8.21 |  |  | 7.85 | 8.05 |  | 8.40 | 
3 | CC(C)[C@H](NC(=O)C(=O)Nc1cccc2ccccc12)C(=O)N[C@@H](CC(=O)O)C(=O)COc1c(F)cccc1F [Example 5] | 8.13 |  |  | 7.39 | 7.60 |  | 8.30 | 
4 | CC(C)[C@H](NC(=O)C(=O)Nc1cccc2ccccc12)C(=O)N[C@@H](CC(=O)O)C(=O)COc1c(F)cc(F)cc1F [Example 6] | 8.06 |  |  | 7.41 | 7.38 |  | 8.28 | 
5 | CC(C)[C@H](NC(=O)C(=O)Nc1cccc2ccccc12)C(=O)N[C@@H](CC(=O)O)C(=O)COc1c(F)c(F)cc(F)c1F [Example 7] | 8.24 |  |  | 7.34 | 7.80 |  | 8.43 | 
6 | Cc1cc(OCC(=O)[C@H](CC(=O)O)NC(=O)[C@@H](NC(=O)C(=O)Nc2cccc3ccccc23)C(C)C)cc(=O)o1 [Example 8] |  |  |  | 7.59 | 6.60 |  | 7.54 | 
7 | CC(C)[C@H](NC(=O)C(=O)Nc1cccc2ccccc12)C(=O)N[C@@H](CC(=O)O)C(=O)COc1c(-c2ccccc2)oc2ccccc2c1=O [Example 9] | 6.89 | 82,100 moles^−1 seconds^−1 | 43,600 moles^−1 seconds^−1 | 7.23 | 6.47 |  | 6.34 | 0 mol⁻¹ s⁻¹
8 | CC(C)[C@H](NC(=O)C(=O)Nc1cccc2ccccc12)C(=O)N[C@@H](CC(=O)O)C(=O)COP(C)(=O)c1ccccc1 (stereo partly shown) [Example 10] | 8.19 |  |  | 7.72 | 7.96 |  | 8.27 | 
9 | CC(C)[C@H](NC(=O)C(=O)Nc1cccc2ccccc12)C(=O)N[C@@H](CC(=O)O)C(=O)COP(=O)(c1ccccc1)c1ccccc1 [Example 11] | 8.30 |  |  | 7.60 | 7.96 |  | 8.89 | 
10 | CC(C)[C@H](NC(=O)C(=O)Nc1cccc2ccccc12)C(=O)N[C@@H](CC(=O)O)C(=O)COc1ccnc(C(F)(F)F)n1 [Example 12] | 8.14 |  |  | 7.19 | 7.02 |  | 7.92 | 
11 | COC(=O)c1cc(OCC(=O)[C@H](CC(=O)O)NC(=O)[C@@H](NC(=O)C(=O)Nc2cccc3ccccc23)C(C)C)no1 [Example 13] | 7.62 |  |  | 7.17 | 7.02 |  | 7.64 | 
12 | CC(C)[C@H](NC(=O)C(=O)Nc1cccc2ccccc12)C(=O)N[C@@H](CC(=O)O)C(=O)COc1ccc(O)cc1 [Example 15] | 8.21 | 1,840,000 moles^−1 seconds^−1 | 286,000 moles^−1 seconds^−1 | 7.38 | 7.43 | 69,100 moles^−1 seconds^−1 | 8.24 | 625,000 moles^−1 seconds^−1
13 | C/C=C/OC(=O)Oc1ccc(OCC(=O)[C@H](CC(=O)O)NC(=O)[C@@H](NC(=O)C(=O)Nc2cccc3ccccc23)C(C)C)cc1 [Example 16] | 8.02 |  |  |  | 7.37 |  |  | 
14 | CC(C)[C@H](NC(=O)C(=O)Nc1cccc2ccccc12)C(=O)N[C@@H](CC(=O)O)C(=O)COc1cccc2ccccc12 [Example 18] | 7.48 | 254,000 moles^−1 seconds^−1 | 180,000 moles^−1 seconds^−1 | 7.34 | 7.70 | 83,700 moles^−1 seconds^−1 | 8.00 | 177,000 moles^−1 seconds^−1
15 | C[C@H](NC(=O)C(=O)Nc1ccccc1-c1ccccc1)C(=O)N[C@@H](CC(=O)O)C(=O)COc1ccccc1F [Example 28] | 7.34 | 167,000 moles^−1 seconds^−1 | 55,600 moles^−1 seconds^−1 | 6.96 | 7.38 | 35,000 moles^−1 seconds^−1 | 8.24 | 37,800 moles^−1 seconds^−1
16 | C[C@H](NC(=O)C(=O)Nc1ccccc1-c1ccccc1)C(=O)N[C@@H](CC(=O)O)C(=O)COC(=O)c1c(Cl)cccc1Cl [Example 29] | 7.42 | 259,000 moles^−1 seconds^−1 | 388,000 moles^−1 seconds^−1 | 7.82 | 8.05 | 219,000 moles^−1 seconds^−1 | 7.77 | 125,000 moles^−1 seconds^−1
17 | C[C@H](NC(=O)C(=O)Nc1ccccc1-c1ccccc1)C(=O)N[C@@H](CC(=O)O)C(=O)COP(=O)(c1ccccc1)c1ccccc1 [Example 30] | 7.66 | 345,000 moles^−1 seconds^−1 | 243,000 moles^−1 seconds^−1 | 7.38 | 7.60 | 317,000 moles^−1 seconds^−1 | 7.62 | 207,000 moles^−1 seconds^−1
18 | C[C@H](NC(=O)C(=O)Nc1ccccc1C(C)(C)C)C(=O)N[C@@H](CC(=O)O)C(=O)COc1ccccc1F [Example 31] | 7.51 | 442,000 moles^−1 seconds^−1 | 67,700 moles^−1 seconds^−1 | 7.22 | 7.15 | 54,900 moles^−1 seconds^−1 | 7.35 | 119,000 moles^−1 seconds^−1
19 | C[C@H](NC(=O)C(=O)Nc1ccccc1C(C)(C)C)C(=O)N[C@@H](CC(=O)O)C(=O)COP(=O)(c1ccccc1)c1ccccc1 [Example 32] | 7.01 | 159,000 moles^−1 seconds^−1 | 327,000 moles^−1 seconds^−1 | 7.47 | 7.80 | 275,000 moles^−1 seconds^−1 | 8.00 | 282,000 moles^−1 seconds^−1
20 | C[C@H](NC(=O)C(=O)NCc1cccc2ccccc12)C(=O)N[C@@H](CC(=O)O)C(=O)COc1c(F)c(F)cc(F)c1F [Example 33] | 8.25 | 2,590,000 moles^−1 seconds^−1 | 158,000 moles^−1 seconds^−1 | 7.21 | 7.80 | 335,000 moles^−1 seconds^−1 | 8.01 | 1,260,000 moles^−1 seconds^−1
21 | C[C@H](NC(=O)C(=O)NCc1cccc2ccccc12)C(=O)N[C@@H](CC(=O)O)C(=O)COC(=O)c1c(Cl)cccc1Cl [Example 34] | 8.00 | 1,160,000 moles^−1 seconds^−1 | 187,000 moles^−1 seconds^−1 | 7.37 | 7.96 | 214,000 moles^−1 seconds^−1 | 8.38 | 936,000 moles^−1 seconds^−1
22 | C[C@H](NC(=O)C(=O)NCc1cccc2ccccc12)C(=O)N[C@@H](CC(=O)O)C(=O)COP(=O)(c1ccccc1)c1ccccc1 [Example 35] | 7.46 | 191,000 moles^−1 seconds^−1 | 245,000 moles^−1 seconds^−1 | 7.66 | 7.96 | 186,000 moles^−1 seconds^−1 | 7.64 | 82,700 moles^−1 seconds^−1
23 | C[C@H](NC(=O)C(=O)Nc1ccccc1C(C)(C)C)C(=O)N[C@@H](CC(=O)O)C(=O)COC(=O)c1c(Cl)cccc1Cl [Example 37] | 6.33 | 43,300 moles^−1 seconds^−1 | 142,000 moles^−1 seconds^−1 | 7.11 | 7.89 | 191,000 moles^−1 seconds^−1 | 7.08 | 39,100 moles^−1 seconds^−1
24 | C[C@H](NC(=O)C(=O)Nc1ccccc1I)C(=O)N[C@@H](CC(=O)O)C(=O)COC(=O)c1c(Cl)cccc1Cl [Example 38] | 6.82 | 90,100 moles^−1 seconds^−1 | 942,000 moles^−1 seconds^−1 | 7.89 | 8.22 | 360,000 moles^−1 seconds^−1 | 8.22 | 337,000 moles^−1 seconds^−1
